Values of other authors in patent publication US5580957A, “GnRH analogs” (The Salk Institute for Biological Studies, priority 1994, dated 1996).

Assays:
GnRH = details: background statement
receptor (GnRH) = molecular target: T1, receptor (GnRH) (Homo sapiens, UniProt P30968); details: background statement
T1 sequence (P30968 1-328): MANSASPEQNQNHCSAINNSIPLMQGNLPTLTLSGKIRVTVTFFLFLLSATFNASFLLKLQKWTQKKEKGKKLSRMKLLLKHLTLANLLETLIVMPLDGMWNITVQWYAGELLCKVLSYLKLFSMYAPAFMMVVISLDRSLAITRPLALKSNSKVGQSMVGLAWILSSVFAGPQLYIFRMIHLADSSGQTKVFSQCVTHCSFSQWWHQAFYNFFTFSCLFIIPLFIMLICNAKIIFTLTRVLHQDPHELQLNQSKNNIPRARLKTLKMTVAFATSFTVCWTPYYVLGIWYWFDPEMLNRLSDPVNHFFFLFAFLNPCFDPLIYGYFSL

Substance: pGlu-His-Trp-Ser-Tyr-D-Ala-Leu-Arg-Pro-Gly-NH2 [[D-Ala^6]-GnRH]
- biological potency versus native hormone (GnRH): greater biological potency than the native hormone
- binding strength to the receptor versus native hormone (receptor (GnRH)): greater binding strength
